Reference: patent publication US9200046B2, “Reporter system for high throughput screening of compounds and uses thereof” (priority 2011, dated 2015)
Counter-ions that a name gives are not always drawn. Like-named read-outs stand apart in the source and are kept apart here.

Target: Nrf2-Keap1 complex (Homo sapiens, UniProt Q14145)
Experiment: cell-based
Type: cell-based
Settings: for activation at 16 µM / activation at 32 µM: 3 h; for activation at 16 µM: read-out: Activation 100 nL; for activation at 32 µM: read-out: Activation 200 nL
[1] = Table 1A, 100 nL compound, screen run at 16 and 32 μM, 3 hr
[2] = Table 1A, 200 nL compound, screen run at 16 and 32 μM, 3 hr
[3] = Table 2, 100 nL compound, screen run at 16 and 32 μM, 3 hr
[4] = Table 2, 200 nL compound, screen run at 16 and 32 μM, 3 hr

Sequence of Nrf2-Keap1 complex (Q14145 whole entry, one chain of several): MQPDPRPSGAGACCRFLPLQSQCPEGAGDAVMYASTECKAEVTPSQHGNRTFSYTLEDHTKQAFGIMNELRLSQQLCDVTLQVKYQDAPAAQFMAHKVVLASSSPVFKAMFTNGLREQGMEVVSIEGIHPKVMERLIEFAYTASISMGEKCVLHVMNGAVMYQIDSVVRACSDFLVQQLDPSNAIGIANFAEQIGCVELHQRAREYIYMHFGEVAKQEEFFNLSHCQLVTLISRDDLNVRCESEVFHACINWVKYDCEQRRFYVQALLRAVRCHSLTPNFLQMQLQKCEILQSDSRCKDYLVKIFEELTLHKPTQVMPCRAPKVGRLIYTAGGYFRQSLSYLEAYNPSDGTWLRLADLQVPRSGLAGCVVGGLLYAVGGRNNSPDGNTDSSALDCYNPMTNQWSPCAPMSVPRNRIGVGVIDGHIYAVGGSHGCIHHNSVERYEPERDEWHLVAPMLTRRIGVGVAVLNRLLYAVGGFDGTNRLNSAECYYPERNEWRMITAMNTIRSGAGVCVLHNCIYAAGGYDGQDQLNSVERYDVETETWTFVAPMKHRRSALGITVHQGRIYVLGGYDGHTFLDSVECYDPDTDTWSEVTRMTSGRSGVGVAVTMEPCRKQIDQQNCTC

CCOC(=O)CCC(=O)O[C@H]1[C@H](O[C@@H]2[C@@H](C)[C@H](O[C@H]3C[C@@](C)(OC)[C@@H](O)[C@H](C)O3)[C@@H](C)C(=O)O[C@H](CC)[C@@](C)(O)[C@H](O)[C@@H](C)C(=O)[C@H](C)C[C@@]2(C)O)O[C@H](C)C[C@@H]1N(C)C [ERYTHROMYCINETHYLSUCCINATE, reference compound]
activation at 16 µM: 41% | activation at 32 µM: -20%

COC(=O)C(N)CS (centres unmarked) [MECYSTEINEHYDROCHLORIDE, reference compound]
100 nL (luminescence): 2028 | 200 nL (luminescence): 3064 | activation at 16 µM: 82% | activation at 32 µM: 216%

CC1CCc2cc(F)cc3c(=O)c(C(=O)O)cn1c23 (centres unmarked) [FLUMEQUINE, reference compound]
100 nL (luminescence): 1156 | 200 nL (luminescence): 368 | activation at 16 µM: 38% | activation at 32 µM: -2%

Nc1ncnc2c1ncn2C1O[C@H](COP(=O)(O)O)[C@@H](O)[C@H]1O (some centres unmarked) [ADENOSINEPHOSPHATE, reference compound]
activation at 16 µM: 27% | activation at 32 µM: 14% | 100 nL (luminescence) [1]: 924 | 200 nL (luminescence) [2]: 556

CC(=O)O[C@@H]1CC2C(C)(C)C(=O)C3OC3[C@]2(C)C2CC[C@@]3(C)[C@H](c4ccoc4)OC(=O)C4OC43[C@@]21C (some centres unmarked) [EPOXYGEDUNIN]
Activation 100 nL: 28% | Activation 200 nL: 43% | 100 nL (luminescence) [3]: 784 | 200 nL (luminescence) [4]: 988

METHYL7-DESHYDROXYPYROGALLIN-4-CARBOXYLATE
Activation 100 nL: 466% | Activation 200 nL: 147% | 100 nL (luminescence) [3]: 4444 | 200 nL (luminescence) [4]: 3792

CCCCC(CC)CNC(=N)NC(=N)NCCCCCCNC(=N)NC(=N)NCC(CC)CCCC (centres unmarked) [ALEXIDINEHYDROCHLORIDE]
activation at 16 µM: 101% | activation at 32 µM: -18% | 100 nL (luminescence) [3]: 1900 | 200 nL (luminescence) [4]: 52

O=c1c(O)cccc2cc(O)c(O)c(O)c12 [PURPUROGALLIN]
activation at 16 µM: 156% | activation at 32 µM: 112% | 100 nL (luminescence) [3]: 3508 | 200 nL (luminescence) [4]: 2420

COc1c(C)c2c(c(O)c1C/C=C(\C)CCC(=O)O)C(=O)OC2 [MYCOPHENOLICACID, reference compound]
activation at 16 µM: 26% | activation at 32 µM: 84% | 100 nL (luminescence) [3]: 904 | 200 nL (luminescence) [4]: 1428

C[C@]12CCC(=O)C=C1C=C[C@@H]1[C@@H]2CC[C@@]2(C)[C@H]1CC[C@@]21CCC(=O)O1 [CANRENONE, reference compound]
100 nL (luminescence): 900 | 200 nL (luminescence): 832 | activation at 16 µM: 25% | activation at 32 µM: 23%

CCCOc1ccc2nc(NC(=O)OC)[nH]c2c1 [OXIBENDAZOLE, reference compound]
activation at 16 µM: 38% | activation at 32 µM: 36% | 100 nL (luminescence) [1]: 1164 | 200 nL (luminescence) [2]: 1064

O=C(/C=C/c1ccc(O)cc1)c1ccc(O)cc1O [ISOLIQUIRITIGENIN]
100 nL (luminescence): 4452 | 200 nL (luminescence): 2364 | activation at 16 µM: 268% | activation at 32 µM: 134%

COc1ccc(-c2oc3cc(O[C@@H]4O[C@H](CO)[C@@H](O)[C@H](O)[C@H]4O)c(OC)c(O)c3c(=O)c2OC)cc1O [CENTAUREIN]
activation at 16 µM: 41% | activation at 32 µM: 19% | 100 nL (luminescence) [3]: 916 | 200 nL (luminescence) [4]: 876

O=c1cc(-c2ccc(O)c(O)c2)oc2cc(O)cc(O)c12 [Luteolin, 5,7,3′,4′-tetrahydroxyflavone]
hit strength in the screen (words): much lesser active than fisetin and quercetin | hit strength in the screen (words) (listed as luteolin): very poor Nrf2 activator

C=C1C2=CC(=O)O[C@@H](c3ccoc3)[C@]2(C)CC[C@@H]1[C@@]1(C)C=CC(=O)C(C)(C)[C@@H]1CC(=O)OC [DEOXYANDIROBIN]
activation at 16 µM: 95% | activation at 32 µM: 106% | 100 nL (luminescence) [3]: 1816 | 200 nL (luminescence) [4]: 1944
